Experimental findings from ChEMBL document CHEMBL1141942, “Novel 7-methoxy-6-oxazol-5-yl-2,3-dihydro-1H-quinazolin-4-ones as IMPDH inhibitors” (Bioorg Med Chem Lett, 2005) are described below.

≈ marks a conversion by molar mass, not a printed value.

The test system of one data set is PBMC. The data set can be described thus: Antiproliferative activity in PMBC. The class given is functional, cell-based. The settings on record: Homo sapiens.
Data set [1] can be described thus: Intrinsic clearance in human liver microsomes. The class given is ADME, Microsome. Background: Liver microsomes are vesicles of endoplasmic reticulum, rich in cytochrome P450 enzymes.
Data set [2] has as its target T1, Inosine-5'-monophosphate dehydrogenase 2 (Homo sapiens, UniProt P12268). In words: Inhibitory activity against IMPDH II.
Data set [3] concerns the target T1, Inosine-5'-monophosphate dehydrogenase 2. As to conditions: 10 uM.
Description: Inhibitory activity against IMPDH II at 10 uM
Data set [4] in a line: Solubility at pH 6.5. The settings on record: buffer. The class given is physicochemical.

With `CCOC(=O)N1CCC2(C1)Nc1cc(OC)c(-c3cnco3)cc1C(=O)N2C` (stereo unspecified), the IC50 (as a rule, the concentration needed to halve the response being measured) in the data set on PBMC came out at 1200 nM; in data set [2] it was 80 nM. Besides, the intrinsic metabolic clearance (microsomal CLint) (in general, the capacity of the preparation to metabolise the compound, expressed as a volume cleared per time) in data set [1] was 24 µL/min/mg.
Consider `COc1cc2c(cc1-c1cnco1)C(=O)N(C)C1(CCOCC1)N2`, for which the values for the concentration for half-maximal inhibition (IC50) (in the data set on PBMC; in data set [2]) were 11600 nM and 526 nM, respectively.
Turning to `COc1cc2c(cc1-c1cnco1)C(=O)N(C)C1(CCN(C(=O)N(C)OC)C1)N2` (stereo unspecified), the concentration for half-maximal inhibition (IC50) with PBMC turned out to be 1900 nM; in data set [2], 79 nM. In data set [1], the microsomal CLint was 38 µL/min/mg.
As for `COC(=O)[C@H]1C[C@@]2(CN1C(=O)OC(C)(C)C)Nc1cc(OC)c(-c3cnco3)cc1C(=O)N2C`, the inhibition (commonly how much of the control response was suppressed) in data set [3] turned out to be 26%.
As for `COc1cc2c(cc1-c1cnco1)C(=O)N(C)C1(CCN(C(=O)C(C)(C)C)C1)N2` (stereo unspecified), the concentration for half-maximal inhibition (IC50) is 540 nM in the data set with PBMC and 94 nM in data set [2]. This compound also yielded an intrinsic clearance (microsomal CLint) in data set [1] of 46 µL/min/mg.
Take `COc1cc2c(cc1-c1cnco1)C(=O)N(C)C1(CCCC1)N2`: the IC50 in the data set with PBMC worked out at 8500 nM; in data set [2], 328 nM.
As to `COc1cc2c(cc1-c1cnco1)C(=O)N(C)C1(CCN(C(=O)N3CCCCC3)C1)N2` (stereo unspecified), the figures for the IC50 (with PBMC; in data set [2]) were 1800 nM and 68 nM, respectively. Further, in data set [1], the intrinsic metabolic clearance (microsomal CLint) is 152 µL/min/mg.
The corresponding values for `COc1cc2c(cc1-c1cnco1)C(=O)N(C)C1(CCN(C(=O)N(C(C)C)C(C)C)C1)N2` (stereo unspecified) are 70 nM, 71 nM and 612 µL/min/mg.
On to `COc1cc2c(cc1-c1cnco1)C(=O)N(C)C(C)(/C=C/c1ccccc1)N2` (stereo unspecified), for which the half-maximal inhibitory concentration (IC50) in the data set on PBMC is 3000 nM; in data set [2] it was 49 nM.
Turning to `COc1cc2c(cc1-c1cnco1)C(=O)N(C)C1(Cc3ccsc3C1)N2` (stereo unspecified), the IC50 was found to be 1900 nM in the data set on PBMC and 96 nM in data set [2].
`COC(=O)[C@@H]1C[C@@]2(CN1C(=O)OC(C)(C)C)Nc1cc(OC)c(-c3cnco3)cc1C(=O)N2C`: the IC50 in data set [2] was found to be 948 nM.
As to `COc1cc2c(cc1-c1cnco1)C(=O)N(C)C(C)(C)N2`, the concentration for half-maximal inhibition (IC50) with PBMC came out at 21000 nM; in data set [2], 192 nM. Further, in data set [4], the concentration in solution (solubility) came to 77 µg/mL (≈ 268 µM).
Turning to `COc1cc2c(cc1-c1cnco1)C(=O)N(C)C1(CCN(C(=O)Nc3ccccc3)C1)N2` (stereo unspecified), the figures for the IC50 (in the data set on PBMC; in data set [2]) were 16000 nM and 393 nM, respectively. This compound came in with an intrinsic clearance (microsomal CLint) in data set [1] of 19 µL/min/mg.
Consider `CCNC(=O)N1CCC2(C1)Nc1cc(OC)c(-c3cnco3)cc1C(=O)N2C` (stereo unspecified), for which the IC50 turned out to be 7200 nM with PBMC and 119 nM in data set [2]. For the same compound, the microsomal CLint in data set [1] is 11 µL/min/mg.
Consider `COc1cc2c(cc1-c1cnco1)C(=O)N(C)C1(CCN(C(=O)N(C)c3ccc(F)cc3F)C1)N2` (stereo unspecified), for which the half-inhibitory concentration (IC50) was 1200 nM with PBMC and 51 nM in data set [2]. In data set [1], this compound displayed a microsomal CLint of 97 µL/min/mg.
Take `CCN(CC)C(=O)N1CCC2(C1)Nc1cc(OC)c(-c3cnco3)cc1C(=O)N2C` (stereo unspecified): the concentration for half-maximal inhibition (IC50) was 540 nM with PBMC and 45 nM in data set [2]. In data set [1], this compound yielded an intrinsic metabolic clearance (microsomal CLint) of 92 µL/min/mg. Further, in data set [4], the concentration in solution (solubility) was 813 µg/mL (≈ 1970 µM).
`COc1cc2c(cc1-c1cnco1)C(=O)N(CCc1ccncc1)C(C)(C)N2`: the IC50 with PBMC came out at 37000 nM; in data set [2], 300 nM.
As to `COc1cc2c(cc1-c1cnco1)C(=O)N(C)C1(CCN(C(=O)OC(C)(C)C)C1)N2` (stereo unspecified), the IC50 with PBMC worked out at 970 nM; in data set [2] it was 104 nM. Moreover, in data set [1], the microsomal CLint came to 42 µL/min/mg. Moreover, the solubility (in general, the dissolved amount per volume that the medium holds) in data set [4] was 101 µg/mL (≈ 244 µM).
Turning to `COc1cc2c(cc1-c1cnco1)C(=O)N(C)C1(CCN(C(=O)N(C)c3ccccc3)C1)N2` (stereo unspecified), the concentration for half-maximal inhibition (IC50) in the data set on PBMC came to 860 nM; in data set [2], 64 nM. For the same compound, the microsomal CLint in data set [1] is 144 µL/min/mg.
`COC(=O)[C@@H]1C[C@]2(CN1C(=O)OC(C)(C)C)Nc1cc(OC)c(-c3cnco3)cc1C(=O)N2C`: half-maximal inhibition in data set [2] (IC50) was put at 369 nM.
In the data set on PBMC, `COc1cc2[nH]c(=O)n(C)c(=O)c2cc1-c1cnco1` displayed an IC50 of 4000 nM. In data set [4], this compound displayed a solubility of 3 µg/mL (≈ 11 µM).
Consider `COC(=O)[C@H]1C[C@]2(CN1C(=O)OC(C)(C)C)Nc1cc(OC)c(-c3cnco3)cc1C(=O)N2C`, for which the IC50 in the data set on PBMC was 1500 nM; in data set [2], 35 nM. For the same compound, the microsomal CLint in data set [1] stood at 18 µL/min/mg.
